In paper PMC9386018, “A lymphatic-absorbed multi-targeted kinase inhibitor for myelofibrosis therapy” (Nature Communications, 2022):
Where “and” joins values, the source holds several entries; their conditions need not be identical. Equal values may be shown once.

How the values were obtained:
[1] = molecular target: Target kinase isoforms (PI3K, mTOR, RAF, MEK) (Homo sapiens, UniProt P42338); assay: Target kinase isoforms 10-point IC50 determination (Supplementary Fig. 7); type: biochemical; conditions: PI3K beta
Excerpt: (§1) The average percent kinase inhibition from replicate data was ranked low to high, converted to a compatible identifier format, then input into Coral Human Kinome Visualization software for presentation analysis. […] Scaling of evolutionary distance for PI kinases is only relative and is based on literature analysis[62],[63]. Average percent kinome inhibition values from replicate data are supplied in Source Data file. […] Corrected data was normalized to vehicle treated control values, and dose response percent kinase activity was analyzed by non-linear regression for determination of IC50 values.

[2] = molecular target: Target kinase isoforms (PI3K, mTOR, RAF, MEK) (Homo sapiens, UniProt P42345); assay: as above; type: biochemical; conditions: mTOR
Excerpt: as §1

[3] = molecular target: Target kinase isoforms (PI3K, mTOR, RAF, MEK) (Homo sapiens, UniProt P42336); assay: as above; type: biochemical; conditions: PI3K alpha
Excerpt: as §1

mTOR = mTOR (Homo sapiens, UniProt P42345); assay: Target kinase 10-point inhibition assay, mTOR; type: biochemical; conditions: replicates
Description: (§2) Quantitation of kinase inhibition was carried out by Life Technologies (Madison, WI) using the SelectScreen profiling platforms Z’-LYTE^TM and Adapta^TM. Single-point broad panel kinome screening was performed at 2.5 µM LP-182 against all kinases within the Z’-LYTE^TM and Adapta^TM assays (321 kinase isoforms, holoenzymes, or mutant variants). The average percent kinase inhibition from replicate data was ranked low to high, converted to a compatible identifier format, then input into Coral Human Kinome Visualization software for presentation analysis. […] Scaling of evolutionary distance for PI kinases is only relative and is based on literature analysis[62],[63]. Average percent kinome inhibition values from replicate data are supplied in Source Data file. […]. Corrected data was normalized to vehicle treated control values, and dose response percent kinase activity was analyzed by non-linear regression for determination of IC50 values.

[4] = Pharmacokinetic analysis of plasma after intravenous and oral dosing; conditions: plasma, mice, analyte = label, individual animals
Description: Samples were centrifuged at 15,000 rpm for 10 min, then blood plasma was collected from the upper layer and frozen at −80 °C until analysis. […] Sample processing, chromatographic separation, MS, and MS/MS parameters used for analysis were determined by the core. […] Standard curves for peak area ratio of compound to internal standard (Astd/AIstd) vs. compound concentration were used to determine sample analyte concentrations through linear regression with a weighting average of 1/X^2. […] All pharmacokinetic parameters were estimated using non-compartmental analysis with Phoenix/WINONLIN, and provided by the core along with calculated sample analyte concentrations. Data was generated from n ≥ 3 individual animals sampled per time point per compound for each method of dosing.

PI3Kγ = PI3Kγ (Homo sapiens, UniProt P48736); assay: Target kinase 10-point inhibition assay, PI3Kγ; type: biochemical; conditions: PI3K gamma, replicates
Description: as §2

SET-2 cells = assay: SET-2 proliferation assay (CellTiter-Fluor); type: cell-based, human; conditions: 72 h, replicates (Fig. 2d)
Description: Viable cells were counted by CellTiter-Fluor Assay (Promega) according to manufacturer’s protocol, and all fluorescence values were corrected by a no-cell control. […] Caspase activity was measured by Caspase-Glo 3/7 assay (Promega) according to the manufacturer’s protocol, and all luminescence values were corrected by a no-cell control. Dose response proliferation and Caspase activation data was normalized to vehicle treated control cells and analyzed by non-linear regression for determination of IC50 values. Data was generated from n = 3 independent experiments performed in replicate.

[5] = concentration 0.495 nM, 0.000495 µM
[6] = concentration 1.52 nM, 0.00152 µM
[7] = concentration 4.57 nM, 0.00457 µM

Target kinase isoforms (PI3K, mTOR, RAF, MEK) (Homo sapiens, UniProt P42336), sequence (P42336 whole entry, canonical isoform): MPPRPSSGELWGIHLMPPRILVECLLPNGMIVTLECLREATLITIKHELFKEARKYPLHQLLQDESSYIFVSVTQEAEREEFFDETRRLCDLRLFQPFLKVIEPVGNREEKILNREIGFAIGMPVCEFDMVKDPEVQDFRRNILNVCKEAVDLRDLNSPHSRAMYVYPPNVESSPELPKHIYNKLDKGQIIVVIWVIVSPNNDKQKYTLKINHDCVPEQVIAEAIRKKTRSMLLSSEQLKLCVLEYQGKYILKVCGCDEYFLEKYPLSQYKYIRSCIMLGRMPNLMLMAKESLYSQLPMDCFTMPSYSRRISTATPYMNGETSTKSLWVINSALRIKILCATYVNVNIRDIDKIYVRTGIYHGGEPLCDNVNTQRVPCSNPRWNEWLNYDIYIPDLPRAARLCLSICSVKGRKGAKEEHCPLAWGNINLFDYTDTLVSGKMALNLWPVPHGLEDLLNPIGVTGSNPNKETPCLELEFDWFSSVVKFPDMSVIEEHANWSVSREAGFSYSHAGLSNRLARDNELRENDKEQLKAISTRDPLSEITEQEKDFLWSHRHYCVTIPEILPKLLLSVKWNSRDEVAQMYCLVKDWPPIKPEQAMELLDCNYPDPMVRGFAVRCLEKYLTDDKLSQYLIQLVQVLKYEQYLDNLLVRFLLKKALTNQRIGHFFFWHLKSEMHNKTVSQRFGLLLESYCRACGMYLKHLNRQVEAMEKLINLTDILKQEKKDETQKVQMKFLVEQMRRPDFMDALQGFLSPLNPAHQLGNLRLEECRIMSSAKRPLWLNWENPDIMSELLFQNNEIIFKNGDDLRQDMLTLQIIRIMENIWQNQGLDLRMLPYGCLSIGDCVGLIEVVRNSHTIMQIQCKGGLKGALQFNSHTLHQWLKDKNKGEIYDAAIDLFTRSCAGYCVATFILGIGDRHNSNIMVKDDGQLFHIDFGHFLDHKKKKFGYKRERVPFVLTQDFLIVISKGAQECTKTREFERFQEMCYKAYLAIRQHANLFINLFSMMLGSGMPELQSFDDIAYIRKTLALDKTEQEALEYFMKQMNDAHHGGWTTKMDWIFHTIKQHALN
Target kinase isoforms (PI3K, mTOR, RAF, MEK) (Homo sapiens, UniProt P42338), sequence (P42338 whole entry, canonical isoform): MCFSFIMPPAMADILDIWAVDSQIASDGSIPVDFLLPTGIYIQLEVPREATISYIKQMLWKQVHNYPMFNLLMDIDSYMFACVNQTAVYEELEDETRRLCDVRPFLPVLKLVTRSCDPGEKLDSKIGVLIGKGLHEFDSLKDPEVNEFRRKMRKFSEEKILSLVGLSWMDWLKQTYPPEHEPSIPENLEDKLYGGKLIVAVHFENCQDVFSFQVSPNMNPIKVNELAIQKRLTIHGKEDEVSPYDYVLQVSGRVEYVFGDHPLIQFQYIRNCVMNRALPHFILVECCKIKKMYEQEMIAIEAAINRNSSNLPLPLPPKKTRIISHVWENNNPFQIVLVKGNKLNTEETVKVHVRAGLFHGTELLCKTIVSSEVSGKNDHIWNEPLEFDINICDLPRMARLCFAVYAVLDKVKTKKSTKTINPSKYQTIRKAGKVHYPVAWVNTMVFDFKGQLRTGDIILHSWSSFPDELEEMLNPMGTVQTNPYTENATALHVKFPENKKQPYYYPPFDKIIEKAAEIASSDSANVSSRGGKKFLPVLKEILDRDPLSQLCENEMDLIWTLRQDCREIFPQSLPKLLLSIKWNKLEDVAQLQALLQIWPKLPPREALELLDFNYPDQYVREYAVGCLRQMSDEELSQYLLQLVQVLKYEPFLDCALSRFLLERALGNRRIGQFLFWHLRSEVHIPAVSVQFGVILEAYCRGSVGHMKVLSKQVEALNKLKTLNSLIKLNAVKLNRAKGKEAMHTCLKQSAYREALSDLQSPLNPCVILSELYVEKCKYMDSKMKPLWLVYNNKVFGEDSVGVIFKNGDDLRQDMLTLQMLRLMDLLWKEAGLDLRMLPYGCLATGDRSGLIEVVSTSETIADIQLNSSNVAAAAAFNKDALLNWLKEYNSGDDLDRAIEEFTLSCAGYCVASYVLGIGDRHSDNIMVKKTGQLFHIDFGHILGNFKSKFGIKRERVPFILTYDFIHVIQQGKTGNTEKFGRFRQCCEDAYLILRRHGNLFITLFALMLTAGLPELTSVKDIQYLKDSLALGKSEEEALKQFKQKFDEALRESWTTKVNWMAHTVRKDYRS
PI3Kγ, sequence (P48736 whole entry): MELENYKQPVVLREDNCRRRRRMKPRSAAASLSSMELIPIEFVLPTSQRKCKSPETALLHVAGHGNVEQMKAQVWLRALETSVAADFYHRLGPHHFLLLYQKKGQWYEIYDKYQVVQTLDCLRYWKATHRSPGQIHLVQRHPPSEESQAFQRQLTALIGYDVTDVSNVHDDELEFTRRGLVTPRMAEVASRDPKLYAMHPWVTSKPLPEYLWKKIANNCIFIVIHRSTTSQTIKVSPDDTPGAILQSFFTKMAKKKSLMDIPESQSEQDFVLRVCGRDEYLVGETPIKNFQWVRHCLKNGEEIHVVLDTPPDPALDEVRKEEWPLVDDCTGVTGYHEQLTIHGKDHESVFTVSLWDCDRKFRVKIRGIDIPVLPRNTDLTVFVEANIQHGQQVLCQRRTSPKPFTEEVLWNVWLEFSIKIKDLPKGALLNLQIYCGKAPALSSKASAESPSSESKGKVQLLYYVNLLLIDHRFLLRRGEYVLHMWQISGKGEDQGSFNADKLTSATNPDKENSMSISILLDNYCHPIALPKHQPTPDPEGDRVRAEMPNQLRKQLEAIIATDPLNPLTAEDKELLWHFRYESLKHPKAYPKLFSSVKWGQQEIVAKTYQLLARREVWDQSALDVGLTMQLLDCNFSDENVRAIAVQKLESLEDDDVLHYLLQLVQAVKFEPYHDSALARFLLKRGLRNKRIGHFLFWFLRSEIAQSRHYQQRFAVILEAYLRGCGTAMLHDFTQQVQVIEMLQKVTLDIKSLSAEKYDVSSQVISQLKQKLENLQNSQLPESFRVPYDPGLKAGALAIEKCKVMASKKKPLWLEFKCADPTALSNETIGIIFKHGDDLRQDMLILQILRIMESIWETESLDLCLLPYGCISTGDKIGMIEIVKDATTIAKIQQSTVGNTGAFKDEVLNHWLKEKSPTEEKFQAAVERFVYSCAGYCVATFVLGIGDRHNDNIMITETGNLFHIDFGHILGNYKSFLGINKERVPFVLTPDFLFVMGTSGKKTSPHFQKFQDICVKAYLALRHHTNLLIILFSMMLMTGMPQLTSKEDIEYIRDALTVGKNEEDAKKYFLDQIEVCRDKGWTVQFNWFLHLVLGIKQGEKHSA

O=S(=O)(Nc1cc(-c2ccc3ncc(N4CCNCC4)nc3c2)cnc1Cl)c1ccc(F)cc1 [LP-527, N-(2-chloro-5-(3-(piperazin-1-yl)quinoxalin-6-yl)pyridin-3-yl)-4-fluorobenzenesulfonamide]
Kinase Activity (%) PI3K beta ([1]; concentration 0.0187 nM, 18.7 pM): 86% and 99% and 98%
Kinase Activity (%) PI3K beta ([1]; concentration 0.0562 nM, 56.2 pM): 94% and 122% and 99% and 98%
Kinase Activity (%) PI3K beta [1, 5]: 87% and 91% and 92% and 97% and 104% and 103% and 82% and 98%
Kinase Activity (%) PI3K beta ([1]; concentration 123 nM, 0.123 µM): 6% and 7% and 8% and 13%
activity at […] ([1]; concentration 370 nM): 4%
Kinase Activity (%) PI3K beta ([1]; concentration 370 nM, […]): 3%
activity at 1.11 µM ([1]; concentration 1110 nM): 5%
Kinase Activity (%) PI3K beta ([1]; concentration 1110 nM, 1.11 µM): 3%
Kinase Activity (%) PI3K beta ([1]; concentration 3330 nM, 3.33 µM): 7% and 6% and 3%
Kinase Activity (%) PI3K beta ([1]; concentration 10000 nM, 10 µM): 7% and 0% and 3%
activity at 6.09 pM ([1]; concentration […]): 108%
activity at 0.000495 µM ([2]; concentration 0.495 nM): 96%
Kinase Activity (%) mTOR [2, 5]: 89% and 90% and 92%
activity at 0.00152 µM ([2]; concentration 1.52 nM): 78%
Kinase Activity (%) mTOR [2, 6]: 80% and 77% and 74% and 83% and 76%
activity at 0.00457 µM ([2]; concentration 4.57 nM): 63%
Kinase Activity (%) mTOR [2, 7]: 61% and 56% and 52% and 57% and 58%
Kinase Activity (%) mTOR ([2]; concentration 123 nM, 0.123 µM): 7% and 3% and 2% and 5% and 0%
Kinase Activity (%) mTOR ([2]; concentration 1110 nM, 1.11 µM): 5% and 3% and 2% and -4% and -2% and -1%
Kinase Activity (%) mTOR ([2]; concentration 3330 nM, 3.33 µM): 3% and 2% and 1% and -3% and -2% and -4%
Kinase Activity (%) mTOR ([2]; concentration 10000 nM, 10 µM): 6% and 3% and 0% and -1% and 1% and -2%
Kinase Activity (%) PI3K alpha ([3]; concentration 0.00626 nM, 6.26 pM): 96% and 108% and 85% and 101%
activity at 18.8 pM ([3]; concentration 0.0188 nM): 97%
Kinase Activity (%) PI3K alpha ([3]; concentration 0.0188 nM, 18.8 pM): 110% and 96% and 100%
activity at 56.4 pM ([3]; concentration 0.0564 nM): 104%
Kinase Activity (%) PI3K alpha ([3]; concentration 0.0564 nM, 56.4 pM): 103% and 96% and 99%
activity at 0.000495 µM ([3]; concentration 0.495 nM): 47%
Kinase Activity (%) PI3K alpha [3, 5]: 55% and 56% and 58%
activity at 0.00152 µM ([3]; concentration 1.52 nM): 29%
Kinase Activity (%) PI3K alpha [3, 6]: 28% and 30% and 31%
activity at 0.00457 µM ([3]; concentration 4.57 nM): 15%
Kinase Activity (%) PI3K alpha [3, 7]: 11% and 9%
Kinase Activity (%) PI3K alpha ([3]; concentration 41.2 nM, 0.0412 µM): 3% and 2% and 0%
activity at 0.000495 µM (mTOR; 0.495 nM): 96%
Kinase Activity (%) (mTOR; 0.495 nM, 0.000495 µM): 89% and 90% (2×) and 92%
activity at 0.00152 µM (mTOR; 1.52 nM): 78%
Kinase Activity (%) (mTOR; 1.52 nM, 0.00152 µM): 80% and 77% and 74% and 83% and 76%
activity at 0.00457 µM (mTOR; 4.57 nM): 63%
Kinase Activity (%) (mTOR; 4.57 nM, 0.00457 µM): 61% and 56% and 52% and 57% and 58%
Kinase Activity (%) (mTOR; 41.2 nM, 0.0412 µM): 15% and 14% and 8% and 12% and 0% and 10%
Kinase Activity (%) (mTOR; 123 nM, 0.123 µM): 7% (2×) and 3% and 2% and 5% and 0%
Kinase Activity (%) (mTOR; 1110 nM, 1.11 µM): 5% and 3% and 2% and -4% and -2% and -1%
Kinase Activity (%) (mTOR; 3330 nM, 3.33 µM): 3% and 2% and 1% and -3% and -2% and -4%
Kinase Activity (%) (mTOR; 10000 nM, 10 µM): 6% and 3% and 0% and -1% and 1% and -2%
concentration at 0.167 h ([4]; female, CD-1, mouse, iv, 15 mg kg^−1, Concentration (ng/mL), single i.v. LP-182 15 mg kg^−1, 0.167 h): 0.0155 µg/mL
concentration at 0.5 h ([4]; female, CD-1, mouse, iv, 15 mg kg^−1, Concentration (ng/mL), single i.v. LP-182 15 mg kg^−1, 0.5 h): 0.00717 µg/mL
concentration at 1 h ([4]; female, CD-1, mouse, iv, 15 mg kg^−1, Concentration (ng/mL), single i.v. LP-182 15 mg kg^−1, 1 h): 0.00653 µg/mL
concentration at 0.5 h ([4]; female, CD-1, mouse, po, 400 mg kg^−1, Concentration (ng/mL), single p.o. LP-182 400 mg kg^−1, 0.5 h): 0.00962 µg/mL
concentration at 16 h ([4]; female, CD-1, mouse, po, 400 mg kg^−1, Concentration (ng/mL), single p.o. LP-182 400 mg kg^−1, 16 h): 0.019 µg/mL
Concentration ([4]; single i.v. LP-182 15 mg kg^−1, 0.167 h): 0.0148 µg/mL and 0.0145 µg/mL
Concentration ([4]; single i.v. LP-182 15 mg kg^−1, 0.5 h): 0.00797 µg/mL and 0.00789 µg/mL
Concentration ([4]; single i.v. LP-182 15 mg kg^−1, 1 h): 0.00565 µg/mL and 0.00642 µg/mL
Concentration ([4]; single i.v. LP-182 15 mg kg^−1, 2 h): 0.00297 µg/mL and 0.00253 µg/mL and 0.00108 µg/mL
Concentration ([4]; single p.o. LP-182 400 mg kg^−1, 0.167 h): 0.00725 µg/mL and 0.0151 µg/mL and 0.00183 µg/mL
Concentration ([4]; single p.o. LP-182 400 mg kg^−1, 0.5 h): 0.0131 µg/mL and 0.015 µg/mL
Concentration ([4]; single p.o. LP-182 400 mg kg^−1, 1 h): 0.0293 µg/mL and 0.0567 µg/mL and 0.0127 µg/mL
Concentration ([4]; single p.o. LP-182 400 mg kg^−1, 2 h): 0.0126 µg/mL and 0.0145 µg/mL and 0.00544 µg/mL
Concentration ([4]; single p.o. LP-182 400 mg kg^−1, 4 h): 0.0235 µg/mL and 0.0115 µg/mL and 0.014 µg/mL
Concentration ([4]; single p.o. LP-182 400 mg kg^−1, 7 h): 0.0273 µg/mL and 0.0116 µg/mL and 0.0315 µg/mL
Concentration ([4]; single p.o. LP-182 400 mg kg^−1, 16 h): 0.0128 µg/mL and 0.0131 µg/mL
Concentration ([4]; single p.o. LP-182 400 mg kg^−1, 24 h): 0.0245 µg/mL and 0.00981 µg/mL and 0.0214 µg/mL
activity at 18.7 pM (PI3Kγ; 0.0187 nM): 98%
Kinase Activity (%) (PI3Kγ; 0.0187 nM, 18.7 pM): 118% and 115% and 109%
Kinase Activity (%) (PI3Kγ; 0.0562 nM, 56.2 pM): 103% and 91% and 124%
Kinase Activity (%) (PI3Kγ; 0.495 nM, 0.000495 µM): 94% (2×) and 75% and 83% and 72% and 100% and 97% and 99% and 96%
Kinase Activity (%) (PI3Kγ; 1.52 nM, 0.00152 µM): 67% and 68% and 73% and 64% and 69% (2×) and 94% and 93% and 92% and 65%
Kinase Activity (%) (PI3Kγ; 4.57 nM, 0.00457 µM): 52% and 53% and 49% and 45% and 47% and 76% and 79% and 62% and 70% and 55%
Kinase Activity (%) (PI3Kγ; 41.2 nM, 0.0412 µM): 18% and 7% and 11% and 10% and 9% and 25% and 24% and 17% and 23% and 14%
Kinase Activity (%) (PI3Kγ; 123 nM, 0.123 µM): 5% and 3% (2×) and 6% and 4% and 11% and 10% (2×) and 9% and 8%
Kinase Activity (%) (PI3Kγ; 1110 nM, 1.11 µM): 0% (4×) and 8% and 1%
Kinase Activity (%) (PI3Kγ; 3330 nM, 3.33 µM): 0% (5×) and 3%
Kinase Activity (%) (PI3Kγ; 10000 nM, 10 µM): 3% and 0% (4×) and 8%
activity at 6.09 pM (PI3Kγ; […]): 102%
Growth (%) (SET-2 cells; 0.0390625 µM): 97.7197% and 103.197% and 95.0232% and 96.0199% and 87.1186% and 84.2432%
Growth (%) (SET-2 cells; 0.078125 µM): 102.201% and 95.8185% and 100.256% and 94.6633% and 89.3668% and 84.7402%
Growth (%) (SET-2 cells; 0.15625 µM): 60.7367% and 65.6255% and 73.87% and 70.9074% and 80.6697% and 85.462%
Growth (%) (SET-2 cells; 0.3125 µM): 89.6622% and 88.0779% and 85.9694% and 85.0557% and 87.935% and 90.4791%
Growth (%) (SET-2 cells; 0.625 µM): 81.0162% and 91.3823% and 77.1925% and 82.0932% and 77.6879% and 82.066%
Growth (%) (SET-2 cells; 5 µM): 12.7992% and 7.412% and 15.3388% and 14.5913% and 45.9761% and 39.8941%
Growth (%) (SET-2 cells; 10 µM): -3.542% and -5.534% and -4.236% and 0.443% and 15.3648% and 16.0393%
Growth (%) (SET-2 cells; 20 µM): -8.838% and -10.5585% and -11.075% and -10.5212% and 6.443% and 9.661%
